Read-outs that look alike come from different tables or passages of the source.
Legend:
[1] = system: Parkinsons disease and Parkinsonisms; assay: Clinical tests: Parkinsons disease and Parkinsonisms, with Levodopa; format: in vivo, human
[2] = mouse, in vivo
Text: Parallel with this, an autoradiographic study was made on the mouse.

[3] = system: hepatic phospholipids; assay: Hepatic phospholipids in rats after intoxication with CCl4; format: in vivo, rat
Text: (§1) This was confirmed by subsequent pharmacological tests.
Hepatic phospholipids in rats after intoxication with CCl4 and treatment with SAM.
(§2) The values are the averages ± E.S. of 10 values for each group. In studying the hepatoprotective activity we have used an experimental device which produces in the rat the so-called hepatic cholesterol degeneration (Ridout and Coll., Biochem. J. 52, 99, 1952).

[4] = system: rabbit; conditions: in vivo, 16 mg/kg
[5] = system: cat; conditions: in vivo, 16 mg/kg
[6] = system: neuritis, polyneuritis, anthralgia, sciatica, radiocolitis, torticollis; cephalalgia
Method: The antalgic activity of SAM was also tested in different subjects with different neurological frameworks: neuritis, polyneuritis, anthralgia, sciatica, radiocolitis, torticollis.

[7] = system: depressive forms; assay: Clinical tests: depressive forms (tests of Hamilton and Wittenberg); format: in vivo, human; conditions: 8 to 20 mg 3-4 times per day, 5-15 days, no other therapy
[8] = system: hepatic cholesterol degeneration; assay: Hepatic cholesterol degeneration in the rat (Ridout); format: in vivo; conditions: for Fresh liver weight: three weeks
Text: as §2
In this method, by means of a suitable diet, a conspicuous increase in the total hepatic fats and hepatic cholesterol are obtained in the animals. The substances which act in the lipidic metabolism reduce or annul this increase.
The animals were divided into six groups. The first group was administered with a diet which was varied at will. The second group was administered with the basic diet of Ridout (20 g per rat per day); the other groups were administered with the same diet in the same doses but enriched with cholesterol to the extent of 0.2 g/rat/day. The treatment lasted three weeks. The groups 4,5,6 were administered with SAM in the following doses:
0.4, 0.8, 2 mg/kg/i.p. per day.
At the end of the three weeks all the animals were killed, the livers were withdrawn and the total fats (Best and Coll., Biochem. J. 40, 368, 1966) and cholesterol (Sperry and Brand, J. Biol. Chem. 150, 315, 1943) were determined.

[9] = system: edema by carragenine; assay: Edema by carragenine (acute inflammation); format: in vivo; conditions: orally 8 to 40 mg/kg; parenterally 4 to 8 mg/kg; in comparison with Ibuprofen, Indometacina
Text: (§3) Of the various tests we shall mention the most classic, namely the edema by carragenine and by egg white as a test for acute inflammation; and granuloma by cotton pellets and arthritis by adjuvant as a test for chronic inflammation. […] The analgesia tests were in the form of the hot plate test and stretching by acetic acid, and the Randal and Selitto test in the rat.

[10] = system: young volunteer healthy subjects of both sexes; assay: Tolerability in young volunteer healthy subjects; format: in vivo; conditions: man, 5-150 mg
[11] = system: osteoarthritic forms; assay: Clinical tests: osteoarthritis; format: in vivo, human
[12] = system: rats; conditions: rat, in vivo
[13] = system: granuloma by cotton pellets; assay: Granuloma by cotton pellets (chronic inflammation); format: in vivo; conditions: orally 8 to 40 mg/kg; parenterally 4 to 8 mg/kg; in comparison with Ibuprofen, Indometacina
Text: as §3

[14] = system: arthritis by adjuvant; assay: Arthritis by adjuvant (chronic inflammation); format: in vivo; conditions: orally 8 to 40 mg/kg; parenterally 4 to 8 mg/kg; in comparison with Ibuprofen, Indometacina
Text: as §3

[15] = system: disturbances of the sleeping-waking rhythm, insomnia; assay: Clinical tests: disturbances of the sleeping-waking rhythm; format: in vivo, human; conditions: 4-13 mg orally
[16] = system: stretching by acetic acid; assay: Stretching by acetic acid analgesia test; format: in vivo; conditions: in comparison with known drugs studied
Text: as §3

[17] = system: clear arteriosclerosis with clinical manifestations of the psycho-affective sphere; assay: Clinical tests: arteriosclerosis, hypoxydotic states, post-apoplectic syndromes; format: in vivo, human
[18] = system: rabbits; conditions: rabbit, in vivo
[19] = system: hot plate test; assay: Hot plate analgesia test; format: in vivo; conditions: in comparison with known drugs studied
Text: as §3

[20] = system: rabbit; assay: Local tolerability of injections; format: in vivo
[21] = system: sleeping time induced by hexobarbital; assay: Hexobarbital sleeping time in mice (Holten and Larsen); format: in vivo
Method: A further aspect considered by us was the possible action of SAM on the sleeping time by barbiturates.
For this purpose an experiment was carried out in which groups of mice received hexobarbital in a dose of 80 mg/kg/i.p. in accordance with the method of Holten and Larsen (Acta Pharmacol. Toxicol. 1956, 12, 346); one group was the control group and the second received SAM in a dose of 4 mg/kg/i.p. (table).

[22] = system: subjects with hypoprotidemias, disprotidemias, chronic hepatopathias, precyrrotic and cyrrotic states, malabsorption and protide dispersing syndromes; assay: Clinical tests: hypoprotidemias, chronic hepatopathias, cyrrotic states, malabsorption; format: in vivo, human; conditions: 20 to 80 mg per day, intermuscular, intravenous or oral
Method: 2. Hundreds of subjects were treated clinically affected with: secondary hypoprotidemias and disprotidemias; persistent and aggressive chronic hepatopathias; precyrrotic and cyrrotic states; malabsorption syndromes, and protide dispersing syndromes.

[23] = system: Randal and Selitto test; assay: Randal and Selitto analgesia test in the rat; format: in vivo; conditions: in comparison with known drugs studied
Text: as §3

[24] = system: edema by egg white; assay: Edema by egg white (acute inflammation); format: in vivo; conditions: orally 8 to 40 mg/kg; parenterally 4 to 8 mg/kg; in comparison with Ibuprofen, Indometacina
Text: as §3

[25] = in vivo, 4.2 mg/kg; for Distribution of SAM in rat tissues: Hypophysis / Distribution of SAM in rat tissues: Hypothalamus / Distribution of SAM in rat tissues: Liver / Distribution of SAM in rat tissues: Plasma / Distribution of SAM in rat tissues: Rind / Distribution of SAM in rat tissues: Spleen / Distribution of SAM in rat tissues: Suprarenal glands: iv
Method: In order to indicatively determine how SAM is distributed in the tissues, S-Adenosilmethionine (Methyl C^14) was prepared. The distribution of this product in rats was studied by administering a dose of 4.2 mg/kg/e.v. equal to approxymately 10 μci of radioactive product. The specific activity of the product was 58 mCi/m moles.

[26] = system: subjects with hyperdislipidemia in the uncompensated stage; assay: Clinical tests: hyperdislipidemia; format: in vivo, human; conditions: 2-3 times per day
[27] = system: hepatic steatosis; assay: Hepatic steatosis models in rats (Handler diet, acute alcoholic intoxication, toxic agents); format: in vivo, rat
Text: as §1

[28] = system: mouse; assay: Acute toxicity (DL50) in the mouse; format: in vivo
Text: In particular, the DL50 in the mouse in greater than 2.5 g/kg/os and 1.00 g/kg/i.p.

[29] = SAM content / stability on storage in the dry state; format: physicochemical; conditions: 60 days at 45°
Method: The great technical progress achieved by these new salts is their stability with time at 45° in the dry state.
The SAM content of all acids according to the present invention remains unchanged even after […] at 45° in the dry state.

## N[C@@H](Cc1ccc(O)c(O)c1)C(=O)O [Levodopa, reference compound]
[1]; Levodopa alone
  extent of the Parkinson tremor: cannot be modified

## C[S+](CC[C@H](N)C(=O)O)C[C@H]1O[C@@H](n2cnc3c(N)ncnc32)[C@H](O)[C@@H]1O (stereo partly drawn) [SAM, S-Adenosil-L-Methionine]
[2]
  distribution to tissues: distributed very rapidly to all the tissues
[3]
  restoration of normal levels of phospholipids: favours the restoration of normal levels of phospholipids
[1]; 4-16 mg per day with Levodopa, vs patients treated only with Levodopa
  akinesia and rigidity: a statistically more significant improvement
[1]; SAM in association with Levodopa
  extent of the Parkinson tremor: Favourable modifications
[1]; depressive states and psychic manifestations of irritative type
  Levodopa dependent psychic disturbances: distinctly improves
[1]; nausea, vomit, inappetite, hypotension, asthenia, cephalea, hypersudoration, insomnia, 4-16 mg per day
  Levodopa side effects: significantly blocks
[4]
  carotid pressure, cardiac and respiratory frequency, electrocardiac trace: does not cause any change
[5]
  carotid pressure, cardiac and respiratory frequency, electrocardiac trace: does not cause any change
[6]; neurological frameworks, 6 mg twice a day intermuscular or 13-20 mg 3-4 times per day orally
  therapeutic (antalgic) effect: available and efficient from the first day of administration
[6]; orally in masticable tablets
  therapeutic effect in recurring and resistant cephalalgia: Analogous results were obtained
[7]
  remission of main parameters of depressive forms: a significant remissione of the main parameters
[8]; 2 mg/kg/i.p.
  protection of the batch: completely protected
[8]; 0.4-0.8 mg/kg/i.p.
  protection of the batch: poorly protected
[8]; batch IV, 0.4 mg/kg/i.p. per day
  Fresh liver weight: 17 g
[8]; batch V, 0.8 mg/kg/i.p. per day
  Fresh liver weight: 16 g
[9]
  anti-inflammatory activity: active
[10]; intravenous
  hemopoietic apparatus and hepatic and renal operation: no variations from normal which were statistically significant
[10]; intravenous, 30" to 20', PQ interval, ST section, extrasistol
  electrocardiograph trace: does not show any variation
[10]; rapid intravenous or phleboclysis, 1 minute to 24 hours
  minimum and maximum pressure, pulse and respiratory frequency: does not show any variation from normal values
[11]; 13 mg twice a day intermuscular or intravenous, and 13-20 mg orally 4 times per day
  activity in osteoarthritic forms: active in all osteoarthritic forms
[11]; after 7 days, with respect to the placebo
  muscular spasm, limitation of movement, localised pain and rigidity: influenced in a statistically significant manner
[11]; double blind study
  therapeutic efficiency vs non-steroid antiphlogistic drug: equal to indomethacin
[12]
  teratogenic actions or malformations: no teratogenic actions were encountered or any malformations
[13]
  anti-inflammatory activity: active
[14]
  anti-inflammatory activity: active
[15]
  sleeping-waking ratios: considerably improve
[16]
  analgesic activity: active
[17]; intermuscular, intravenous or slow phleboclysis, 8 to 16 mg 3-4 times per day
  symptomatology in arteriosclerosis: a very favourable modification of the symptomatology
[17]; post-apoplectic syndromes
  improvement of the clinical framework in post-apoplectic syndromes: a greater rapidity was found in the improvement
[18]
  teratogenic actions or malformations: no teratogenic actions were encountered or any malformations
[19]
  analgesic activity: active
[20]; intramuscular, even repeated over 180 days
  local tolerability of the intramuscular injection: excellent
[20]; intravenous, marginal vein of the auricular pavilion of the rabbit
  local tolerability of the intravenous injection: excellent
[21]
  prolonging the sleeping time induced by hexobarbital: active in prolonging the sleeping time
[22]
  albumin level: an increase in the albumin level
  percentage ratios between the electrophoretic fractions of the serum: a tendency to normalise
  subjective symptomology and general objective conditions: often very important improvement
  tests of hepatic functionality: normalising of all the tests of hepatic functionality
  total protidemia: a statistically significant increase
[23]
  analgesic activity: active
[24]
  anti-inflammatory activity: active
[25]; 0.25 h
  Distribution of SAM in rat tissues: Hypophysis: 2.3 μgr/gr
  Distribution of SAM in rat tissues: Hypothalamus: 0.3 μgr/gr
  Distribution of SAM in rat tissues: Liver: 1.7 μgr/gr
  Distribution of SAM in rat tissues: Plasma: 7.5 μgr/gr
  Distribution of SAM in rat tissues: Rind: 0.25 μgr/gr
  Distribution of SAM in rat tissues: Spleen: 1.3 μgr/gr
  Distribution of SAM in rat tissues: Suprarenal glands: 1.9 μgr/gr
[25]; 1 h
  Distribution of SAM in rat tissues: Hypophysis: 2.5 μgr/gr
  Distribution of SAM in rat tissues: Hypothalamus: 0.65 μgr/gr
  Distribution of SAM in rat tissues: Liver: 3.0 μgr/gr
  Distribution of SAM in rat tissues: Plasma: 2.1 μgr/gr
  Distribution of SAM in rat tissues: Rind: 0.45 μgr/gr
  Distribution of SAM in rat tissues: Spleen: 1.2 μgr/gr
  Distribution of SAM in rat tissues: Suprarenal glands: 3.4 μgr/gr
[25]; 4 h
  Distribution of SAM in rat tissues: Hypophysis: 8.0 μgr/gr
  Distribution of SAM in rat tissues: Hypothalamus: 1.0 μgr/gr
  Distribution of SAM in rat tissues: Liver: 5.5 μgr/gr
  Distribution of SAM in rat tissues: Plasma: 2.3 μgr/gr
  Distribution of SAM in rat tissues: Rind: 0.75 μgr/gr
  Distribution of SAM in rat tissues: Spleen: 3.5 μgr/gr
  Distribution of SAM in rat tissues: Suprarenal glands: 4.8 μgr/gr
[25]; 8 h
  Distribution of SAM in rat tissues: Hypophysis: 4.5 μgr/gr
  Distribution of SAM in rat tissues: Hypothalamus: 1.3 μgr/gr
  Distribution of SAM in rat tissues: Liver: 5.6 μgr/gr
  Distribution of SAM in rat tissues: Plasma: 2.0 μgr/gr
  Distribution of SAM in rat tissues: Rind: 8.5 μgr/gr
  Distribution of SAM in rat tissues: Spleen: 2.6 μgr/gr
  Distribution of SAM in rat tissues: Suprarenal glands: 4.5 μgr/gr
[25]; 24 h
  Distribution of SAM in rat tissues: Hypophysis: 4.2 μgr/gr
  Distribution of SAM in rat tissues: Hypothalamus: 1.3 μgr/gr
  Distribution of SAM in rat tissues: Liver: 5.7 μgr/gr
  Distribution of SAM in rat tissues: Plasma: 1.1 μgr/gr
  Distribution of SAM in rat tissues: Rind: 9.4 μgr/gr
  Distribution of SAM in rat tissues: Spleen: 2.8 μgr/gr
  Distribution of SAM in rat tissues: Suprarenal glands: 4.4 μgr/gr
[25]; rat
  distribution to tissues: distributed very rapidly to all the tissues
[26]; doses of about 8-1.5 mg
  dose dependence of hypocholesterolemising and hypolipemising action: proportional to the dose
[26]; hyperdislipidemia
  hypertriglyceridemia: a marked fall
  total cholesterolemia: a marked fall
  β/α lipoproteic ratios: normalises
[27]
  accumulation of lipids at the hepatocite level: significantly reduces
[28]; i.p.
  DL50 in the mouse: > 1.00 g/kg
[28]; os
  DL50 in the mouse: greater than 2.5 g/kg

## C[S+](CC[C@H](N)C(=O)O)C[C@H]1O[C@@H](n2cnc3c(N)ncnc32)[C@H](O)[C@@H]1O (some centres unmarked) [chloride]
[29]
  decomposition after 60 days: completely decomposed

— patent US4057686A, “Sulphonic acid salts of S-adenosilmethionine” (Bioresearch Limited, priority 1974, dated 1977)
